Measured values taken from patent US20250339374A1, “BONDED MICROPARTICULATES PREPARATION AND APPLICATIONS THEREOF” (Venkor Corporation, priority 2022, published 2025).
Read-outs that look alike come from different tables or passages of the source.

Key:
[1] = Solubility in water of solid particulate material (descriptive); type: physicochemical
Description: In some embodiments, the solid particulate starting material is hydrophilic or hydrophobic or lipophilic in character. Solubility of drugs is measured by the amount of solvent needed to dissolve one part of the drug at a specific temperature. For example, a drug that is very soluble needs less than one part of solvent to dissolve one part of the drug. A drug that is considered freely soluble needs 1 to 10 parts of solvent, one that is soluble needs 10 to 30 parts of solvent, one that sparingly soluble need 30 to 100 parts of solvent, one that is slightly soluble needs 100-1,000 parts and one that is practically insoluble or insoluble needs more than 10,000 parts, per part of solute.

[2] = Tapped density, USP <616>; type: physicochemical; conditions: solid particulate material, description in composition table; equals tapped density of Active
Description: In addition to screen analysis, the tap density and the bulk density of the bonded microparticulates and solid particulate material were determined.

[3] = Sieve analysis (particle size) of solid particulate material and BMPX, USP <786>; type: physicochemical; conditions: solid particulate material; for Particle size: description in composition table
Excerpt: For example, to prepare tablets, certain excipients such as disintegrants, lubricants, glidants etc. may be added to the bonded microparticulates to further facilitate forming the tablet.

[4] = in water; description of the solid particulate material in the composition table; cited from earlier work
[5] = description in composition table

Row | Compound | Density [2] | Particle size [3] | Solubility [4] | also measured
1 | OC[C@@H](O)[C@H](O)[C@@H](O)CO [Xylitol-90] | – | – | – | Solubility ([1]; in water): Solubility- soluble in water
2 | Fructo-Oligosaccharide | Density -0.75 (High Density) | Particle size- 149 microns | – | Solubility [1, 5]: Solubility- soluble in water
3 | O=C([O-])O.[Na+] [Sodium Bicarbonate, reference compound] | Density -1.19 (High Density)- | 74 microns | – | retain on 200# ([3]; 200 mesh): 70.8%
4 | CCOC(=O)C1=C(COCCN)NC(C)=C(C(=O)OC)C1c1ccccc1Cl (centres unmarked) [Amlodipine Besylate] | – | – | Solubility- insoluble in water | –
5 | OC[C@@H](O)[C@H](O)[C@@H](O)CO [Xylitol-300] | Density -0.83 (High Density) | Particle size- 149 microns | – | Solubility [1, 5]: Solubility- soluble in water
6 | CC(C)Cc1ccc(C(C)C(=O)O)cc1 (centres unmarked) [Ibuprofen] | – | – | Solubility- in soluble in water | –
7 | Sugar powder | – | – | – | Solubility ([1]; in water): Solubility- soluble in water
8 | OC[C@@H](O)[C@@H](O)[C@H](O)[C@H](O)CO [Mannitol] | – | – | – | Solubility ([1]; in water): Solubility- insoluble in water
9 | O=C([O-])[O-].[Ca+2] [Calcium Carbonate] | Density -1.2(High Density) | – | – | retain on 60mesh ([3]; 60 mesh): ≥ 90% retain on 60mesh
10 | COc1ccccc1OCC(O)CO (centres unmarked) [Guaifenesin] | – | – | Solubility- soluble in water | –
11 | O=C(O)c1cccnc1 [Niacin] | – | – | Solubility- soluble in water | –
12 | Zinc Gluconate | Density- 0.6(Medium density) | Particle size- 177 microns | – | –
